Measured values taken from US8440707B2, “Antagonists of lysophosphatidic acid receptors” (Amira Pharmaceuticals, Inc., priority 2008, dated 2013).

Assays:
[1] = test system: renal fibrosis; conditions: compared with LPA1 (−/−) mice, in which renal fibrosis was significantly attenuated; cited from earlier work
[2] = test system: highly peritoneal metastatic pancreatic cancer cell line; conditions: cited from earlier work
[3] = test system: pancreatic cancer cell lines; conditions: cited from earlier work
[4] = test system: bone metastasis; conditions: cited from earlier work
[5] = test system: bleomycin-induced lung fibrosis; assay: Bleomycin-induced lung fibrosis model in mice; format: in vivo
Description: Female CD-1 mice (Harlan, 25-30 g) are housed 4 per cage, given free access to food and water and allowed to acclimate for at least 7 days prior to test initiation. After the habituation phase, mice are lightly anesthetized with isoflurane (5% in 100% O2) and administered with bleomycin sulfate (0.01-5 U/kg, Henry Schein) via intratracheal instillation (Cuzzocrea S et al. Am J Physiol Lung Cell Mol. Physiol. 2007 May; 292(5):[…]-104. Epub 2007 Jan. 12). Mice are returned to their cages and monitored daily for the duration of the experiment. Test compound or vehicle is delivered po, ip or sc daily. The route and frequency of dosing is based on previously determined pharmacokinetic properties. All animals are sacrificed using inhaled isoflurane 3, 7, 14, 21 or 28 days after bleomycin instillation. Following sacrifice, mice are intubated with a 20 gauge angiocatheter attached to a 1 ml syringe. Lungs are lavaged with saline to obtain bronchoalveolar lavage fluid (BALF) and then removed and fixed in 10% neutral buffered formalin for subsequent histopathological analysis. BALF is centrifuged for 10 min at 800×g to pellet the cells and the cell supernatant removed and frozen at -80° C. for subsequent protein analysis using the DC protein assay kit (Biorad, Hercules, Calif.) and soluble collagen analysis using Sircol (Biocolor Ltd, UK). BALF is analyzed for concentrations of inflammatory, pro-fibrotic and tissue injury biomarkers including transforming growth factor β1, hyaluronic acid, tissue inhibitor of metalloproteinase-1, matrix matelloproteinase-7, connective tissue growth factor and lactate dehydrogenase activity, using commercially available ELISA. The cell pellet is re-suspended in PBS. Total cell counts are then obtained using a Hemavet hematology system (Drew Scientific, Wayne, Pa.) and differential cells counts are determined using Shandon cytospin (Thermo Scientific, Waltham, Mass.). Lung tissue is stained using hematoxylin and eosin (H&E) and trichrome and lung fibrosis is determined by semiquantitative histopathological scoring (Ashcroft T. et al. J. Clin. Path. 1988; 41; 4, 467-470) using light microscopy (10× magnification) and quantitative, computer-assisted densitometry of collagen in lung tissue sections using light microscopy. The data are plotted using Graphpad prism and statistical differences between groups determined.

[6] = test system: CCl4-induced liver fibrosis; assay: Mouse carbon tetrachloride (CCl4)-induced liver fibrosis model; format: in vivo; conditions: for collagen deposition in the liver: as compared to the untreated group
Method: Female C57BL/6 mice (Harlan, 20-25 g) housed 4/cage are given free access to food and water and allowed to acclimate for at least 7 days prior to test initiation. After the habituation phase, mice receive CCl4 (0.5-1.0 ml/kg body weight) diluted in corn oil vehicle (100 μL volume) via i.p. injection twice a week for 4-6 weeks. (Higazi, A. A. et al., Clin Exp Immunol. 2008 April; 152(1):163-73. Epub 2008 Feb. 14). Control mice receive an equivalent volume of corn oil vehicle only. Test compound or vehicle is delivered po, ip or sc daily. At the end of the study (4-6 weeks after first i.p. injection of CCl4), mice are sacrificed using inhaled isoflurane and blood is drawn via cardiac puncture for subsequent analysis of ALT/AST levels. The liver is harvested, and one half of the liver is frozen at −80° C. and the other half is fixed in 10% neutral buffered formalin for histological assessment of liver fibrosis using light microscopy (10× magnification). Liver tissue homogenates are analyzed for collagen levels using Sircol (Biocolor Ltd, UK). Fixed Liver tissue is stained using hematoxylin and eosin (H&E) and trichrome and liver fibrosis is determined by quantitative, computer-assisted densitometry of collagen in liver tissue sections using light microscopy. Plasma and liver tissue lysates are also analyzed for concentrations of inflammatory, pro-fibrotic and tissue injury biomarkers including transforming growth factor β1, hyaluronic acid, tissue inhibitor of metalloproteinase-1, matrix matelloproteinase-7, connective tissue growth factor and lactate dehydrogenase activity, using commercially available ELISA. The resulting data are plotted using Graphpad prism and statistical differences between groups determined.

[7] = chronic setting (14-days only), single bleomycin instillation (3.0 units)
[8] = chronic setting (14 and 28 day), single bleomycin (1.5 units/kg) instillation
[9] = chronic setting, repeated bleomycin (3.0-5.0 units/kg/week) instillations

Structure (SMILES) | development of renal fibrosis in UUO mice [1] | LPA-induced and ascites-induced invasion activity [2] | in vitro migration in response to LPA and peritoneal fluid (ascites) from pancreatic cancer patients [3] | metastasis to bone in vivo [4] | lactate in the BALF ([5]; acute setting (3-day)) | tissue inhibitor of metalloproteinase-1 (TIMP-1; pro-fibrotic marker) concentrations in BALF ([5]; acute setting (3 day)) | total protein in broncheoalveolar lavage fluid (BALF) ([5]; acute setting (3 day)) | fibrosis [5, 7] | inflammatory cell influx [5, 7] | collagen deposition in the liver [6] | lactate dehydrogenase activity (LDH; tissue injury marker) in BALF ([5]; acute setting (3 day)) | fibrosis [5, 8] | inflammatory cell influx [5, 8] | mouse body weight [5, 8] | lung fibrosis [5, 9] | pulmonary resistance [5, 9] | effect on collagen deposition compared with pirfenidone ([6]; 30 mg/kg, po, qd)
Cc1noc(-c2ccc(CSCCC(=O)O)cc2)c1NC(=O)OC(C)c1ccccc1Cl (centres unmarked) [Ki16425] | closely resembled the LPA1 (−/−) mice | blocked | effectively blocked | inhibit | – | – | – | – | – | – | – | – | – | – | – | – | –
Cc1noc(-c2ccc(-c3ccc(CC(=O)O)cc3)cc2)c1NC(=O)O[C@H](C)c1ccccc1 [Compound 37, {4′-[3-Methyl-4-((R)-1-phenyl-ethoxycarbonylamino)-isoxazol-5-yl]-biphenyl-4-yl}-acetic acid] | – | – | – | – | reduced | reduced | reduced | decreased | decreased | significantly reduced | – | – | – | – | – | – | –
Cc1noc(-c2ccc(-c3ccc(CC(=O)O)cc3)cc2)c1NC(=O)O[C@H](C)c1ccccc1Cl [Compound 27, (4′-{4-[(R)-1-(2-Chloro-phenyl)-ethoxycarbonylamino]-3-methyl-isoxazol-5-yl}-biphenyl-4-yl)-acetic acid] | – | – | – | – | – | significantly reduced | significantly reduced | – | – | significantly reduced | significantly reduced | decreased | decreased | maintained | decreased | decreased | same effect
